We go through 17 compounds from PMC6804162, “Inhibitory Effects of Novel 7-Substituted 6-iodo-3-O-Flavonol Glycosides against Cholinesterases and β-secretase Activities, and Evaluation for Potential Antioxidant Properties” (Molecules, 2019).

Assay [1] is described as follows: DPPH radical scavenging activity assay. As to conditions: DPPH 0.20 mM in methanol, 45 min in the dark, mean ± SD. As to the method: The test compounds at various concentration ranging from (0 to 40 µM) in DMSO were mixed with a solution of DPPH (0.20 mM) in methanol. […] All tests and analyses were run in triplicate and averaged. The inhibition was calculated in terms of percentage using the formula below:DPPH radical scavenged (%) = [(AbC ‒ AbS)/AbC] × 100(2) where AbC is absorbance of control and AbS the absorbance of the test sample.

For assay [2], the target named is butyrylcholinesterase (BChE) (Homo sapiens, UniProt P06276). Nature of the assay: biochemical. The note with it: for SI AChE/BChE: BChE selectivity index = IC50 (AChE)/IC50 (BChE); for IC50: mean ± SD, three independent experiments. The procedure:
(§1) The IC50 and standard deviation values were determined graphically using Graph Pad Prism.

Assay [3] addresses acetylcholinesterase (AChE) (Homo sapiens, UniProt P22303). Briefly: biochemical. In kind it is biochemical. As to conditions: for SI BChE/AChE: AChE selectivity index = IC50 (BChE)/IC50 (AChE); for IC50: mean ± SD, three independent experiments. The procedure: as §1
Assay [4] has as its target T1, β-secretase (BACE-1) (Homo sapiens, UniProt P56817).
T1 construct: purchased Pan Vera; host or cells: baculovirus expression system
Nature of the assay: Kinetic study against β-secretase (Lineweaver–Burk and Dixon plots). The format is biochemical. The procedure: (§2) The Lineweaver–Burk plots were drawn to determine the type of inhibition these compounds display against AChE and BChE (refer to Figure S2. In the Supplementary Material for the corresponding graphs).
(§3) Kinetic evaluation of 2l and 2p against ChEs or β-secretase were conducted following similar procedures previously employed for the corresponding flavonol precursors.

Assay [5] addresses T1, β-secretase (BACE-1). Briefly: In vitro β-secretase inhibitory FRET assay. The format is biochemical. As to conditions: 60 min incubation, read-out: IC50 (µM) against β-secretase activity. As to the method:
The inhibition ratio was calculated using the following equation:Inhibition (%) = [1 − (S − S0)/(C − C0)] × 100(1) where C is the fluorescence of control (enzyme, assay buffer, and substrate) after 60 min of incubation, C0 is the fluorescence of control at time 0, S is the fluorescence of tested samples (enzyme, sample solution, and substrate) after 60 min of incubation, and S0 the fluorescence of the tested samples at time 0.

The target in assay [6] is AChE (Homo sapiens, UniProt P22303). Nature of the assay: Kinetic study against AChE (Lineweaver–Burk and Dixon plots). In kind it is biochemical. The procedure:
as §2, §3

The target in assay [7] is BChE (Homo sapiens, UniProt P06276). Briefly: Kinetic study against BChE (Lineweaver–Burk and Dixon plots). In kind it is biochemical. The procedure:
as §2, §3

Structures are written as SMILES. Where “and” joins values, the source holds several entries; their conditions need not be identical. Equal entries are not always repeated.

T1 sequence (P56817 46-501): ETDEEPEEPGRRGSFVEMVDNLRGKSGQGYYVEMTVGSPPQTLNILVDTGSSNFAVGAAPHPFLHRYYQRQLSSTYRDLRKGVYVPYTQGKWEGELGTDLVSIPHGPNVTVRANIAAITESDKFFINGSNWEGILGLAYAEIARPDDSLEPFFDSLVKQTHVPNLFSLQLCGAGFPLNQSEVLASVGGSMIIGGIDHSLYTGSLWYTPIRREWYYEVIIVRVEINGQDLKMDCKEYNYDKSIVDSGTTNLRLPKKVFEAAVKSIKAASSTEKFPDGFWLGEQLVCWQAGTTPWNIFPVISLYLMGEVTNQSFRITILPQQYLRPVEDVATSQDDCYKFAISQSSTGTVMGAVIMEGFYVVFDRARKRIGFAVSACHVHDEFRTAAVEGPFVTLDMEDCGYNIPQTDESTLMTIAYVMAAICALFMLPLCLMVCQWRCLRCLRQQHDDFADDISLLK
Sequence of acetylcholinesterase (AChE) (P22303 32-614): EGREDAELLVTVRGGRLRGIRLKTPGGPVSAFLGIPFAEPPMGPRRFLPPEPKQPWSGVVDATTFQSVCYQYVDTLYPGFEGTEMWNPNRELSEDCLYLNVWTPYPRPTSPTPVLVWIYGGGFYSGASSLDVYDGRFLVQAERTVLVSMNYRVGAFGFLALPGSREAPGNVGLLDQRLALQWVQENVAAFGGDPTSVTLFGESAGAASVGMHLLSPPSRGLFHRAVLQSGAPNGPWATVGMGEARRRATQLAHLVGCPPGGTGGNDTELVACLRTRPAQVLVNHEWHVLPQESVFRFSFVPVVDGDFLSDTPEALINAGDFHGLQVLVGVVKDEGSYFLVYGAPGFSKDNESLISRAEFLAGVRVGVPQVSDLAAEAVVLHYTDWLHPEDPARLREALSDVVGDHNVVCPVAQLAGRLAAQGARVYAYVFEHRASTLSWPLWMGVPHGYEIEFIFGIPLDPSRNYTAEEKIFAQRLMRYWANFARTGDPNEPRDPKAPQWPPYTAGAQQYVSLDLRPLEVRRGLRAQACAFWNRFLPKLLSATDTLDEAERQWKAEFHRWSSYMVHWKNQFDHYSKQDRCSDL
Sequence of butyrylcholinesterase (BChE) (P06276 29-602): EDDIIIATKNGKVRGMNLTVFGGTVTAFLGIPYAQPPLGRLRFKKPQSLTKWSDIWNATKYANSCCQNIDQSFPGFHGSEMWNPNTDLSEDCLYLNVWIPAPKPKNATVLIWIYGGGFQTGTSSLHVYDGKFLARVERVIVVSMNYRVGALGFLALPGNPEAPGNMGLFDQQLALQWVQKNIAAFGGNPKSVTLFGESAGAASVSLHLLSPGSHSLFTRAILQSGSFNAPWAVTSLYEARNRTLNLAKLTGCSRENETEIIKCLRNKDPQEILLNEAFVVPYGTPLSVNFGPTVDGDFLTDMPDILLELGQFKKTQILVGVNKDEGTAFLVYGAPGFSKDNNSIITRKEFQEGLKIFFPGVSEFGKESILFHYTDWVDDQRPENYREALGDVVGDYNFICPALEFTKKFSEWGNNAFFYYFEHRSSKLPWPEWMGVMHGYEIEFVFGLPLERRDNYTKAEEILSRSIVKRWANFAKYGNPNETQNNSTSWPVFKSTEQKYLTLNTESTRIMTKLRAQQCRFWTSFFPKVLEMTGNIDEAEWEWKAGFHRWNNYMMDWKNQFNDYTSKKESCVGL
Sequence of AChE (P22303 32-614): as the sequence (P22303 32-614) above
Sequence of BChE (P06276 29-602): as the sequence (P06276 29-602) above

For `O=C1O[C@H]([C@@H](O)CO)C(O)=C1O` [Ascorbic acid, ascorbic acid, reference compound], the IC50 (commonly the midpoint of a concentration-inhibition curve) in assay [1] came to 5.5 ± 0.02 µM.
Take `CC(=O)OC[C@H]1O[C@@H](Oc2c(-c3ccccc3)oc3cc(F)c(I)cc3c2=O)[C@H](OC(C)=O)[C@@H](OC(C)=O)[C@@H]1OC(C)=O` [Compound 2a, 7-Fluoro-6-iodo-2-phenyl-4H-chromen-4-one-3-O-2,3,4,6-O-tetraacetyl-β-d-glucopyranoside]: in assay [2], the “SI AChE/BChE” value is reported as 0.71 and the half-maximal inhibitory concentration (IC50) stood at 26.17 ± 0.01 µM. In assay [3], the “SI BChE/AChE” value was 1.40 and the concentration for half-maximal inhibition (IC50) stood at 18.72 ± 0.03 µM.
Turning to `CC(=O)OC[C@H]1O[C@@H](Oc2c(-c3ccc(F)cc3)oc3cc(F)c(I)cc3c2=O)[C@H](OC(C)=O)[C@@H](OC(C)=O)[C@@H]1OC(C)=O` [Compound 2b, 7-Fluoro-(4-fluorophenyl)-6-iodo-4H-chromen-4-one-3-O-2,3,4,6-O-tetraacetyl-β-d-glucopyranoside], in assay [2], the “SI AChE/BChE” value was determined as 1.3 and 21.9 ± 0.04 µM corresponded to half-maximal inhibition (IC50). In assay [3], the “SI BChE/AChE” value came to 0.78 and the midpoint of inhibition, the IC50, lay at 28.2 ± 0.02 µM.
For `CC(=O)OC[C@H]1O[C@@H](Oc2c(-c3ccc(Cl)cc3)oc3cc(F)c(I)cc3c2=O)[C@H](OC(C)=O)[C@@H](OC(C)=O)[C@@H]1OC(C)=O` [Compound 2c, 7-Fluoro-2-(4-Chlorophenyl)-6-iodo-4H-chromen-4-one-3-O-2,3,4,6-O-tetraacetyl-β-d-glucopyranoside] the same measures were 0.80, 30.84 ± 0.04 µM, 1.25 and 24.74 ± 0.03 µM.
On to `COc1ccc(-c2oc3cc(F)c(I)cc3c(=O)c2O[C@@H]2O[C@H](COC(C)=O)[C@@H](OC(C)=O)[C@H](OC(C)=O)[C@H]2OC(C)=O)cc1` [Compound 2d, 7-Fluoro-6-iodo-2-(4-methoxyphenyl)-4H-chromen-4-one-3-O-2,3,4,6-O-tetraacetyl-β-d-glucopyranoside], for which, in assay [2], the “SI AChE/BChE” value came out at 3.13 and the half-maximal inhibitory concentration (IC50) came to 19.25 ± 0.11 µM. In addition, in assay [3], the “SI BChE/AChE” value is 0.32 and the midpoint of inhibition, the IC50, lay at 60.4 ± 0.05 µM.
The corresponding values for `CC(=O)OCC1OC(Oc2c(-c3ccccc3)oc3cc(Cl)c(I)cc3c2=O)C(OC(C)=O)C(OC(C)=O)C1OC(C)=O` (stereo not drawn) [Compound 2e, 7-Chloro-6-iodo-2-phenyl-4H-chromen-4-one-3-O-2,3,4,6-O-tetraacetyl-β-d-glucopyranoside] are 3.85, 9.03 ± 0.12 µM, 0.26 and 34.44 ± 0.03 µM.
The corresponding values for `CC(=O)OC[C@H]1O[C@@H](Oc2c(-c3ccc(F)cc3)oc3cc(Cl)c(I)cc3c2=O)[C@H](OC(C)=O)[C@@H](OC(C)=O)[C@@H]1OC(C)=O` [Compound 2f, 7-Chloro-2-(4-fluorophenyl)-6-iodo-4H-chromen-4-one-3-O-2,3,4,6-O-tetraacetyl-β-d-glucopyranoside] are 2.27, 31.09 ± 0.04 µM, 0.44 and 70.66 ± 0.01 µM.
Take `CC(=O)OCC1OC(Oc2c(-c3ccc(Cl)cc3)oc3cc(Cl)c(I)cc3c2=O)C(OC(C)=O)C(OC(C)=O)C1OC(C)=O` (stereo not drawn) [Compound 2g, 7-Chloro-2-(4-chlorophenyl)-6-iodo-4H-chromen-4-one-3-O-2,3,4,6-O-tetraacetyl-β-d-glucopyranoside]: the “SI AChE/BChE” value in assay [2] amounted to 4.35. For the same compound, the IC50 in assay [2] was determined as 7.15 ± 0.01 µM; in assay [3], 31.44 ± 0.13 µM; in assay [1], 13.1 ± 0.01 µM. Also, the “SI BChE/AChE” value in assay [3] is reported as 0.23.
As to `COc1ccc(-c2oc3cc(Cl)c(I)cc3c(=O)c2O[C@@H]2O[C@H](COC(C)=O)[C@@H](OC(C)=O)[C@H](OC(C)=O)[C@H]2OC(C)=O)cc1` [Compound 2h, 7-Chloro-6-iodo-2-(4-methoxyphenyl)-4H-chromen-4-one-3-O-2,3,4,6-O-tetraacetyl-β-d-glucopyranoside], in assay [2], the “SI AChE/BChE” value is 2.56 and the half-inhibitory concentration (IC50) turned out to be 10.1 ± 0.06 µM. For the same compound, in assay [3], the “SI BChE/AChE” value was found to be 0.39 and half-maximal inhibition (IC50) required 25.92 ± 0.02 µM.
The corresponding values for `CC(=O)OC[C@H]1O[C@@H](Oc2c(-c3ccccc3)oc3cc(Br)c(I)cc3c2=O)[C@H](OC(C)=O)[C@@H](OC(C)=O)[C@@H]1OC(C)=O` [Compound 2i, 7-Bromo-6-iodo-2-phenyl-4H-chromen-4-one-3-O-2,3,4,6-O-tetraacetyl-β-d-glucopyranoside] are 7.14, 9.79 ± 0.04 µM, 0.14 and 70.56 ± 0.03 µM.
With `CC(=O)OC[C@H]1O[C@@H](Oc2c(-c3ccc(F)cc3)oc3cc(Br)c(I)cc3c2=O)[C@H](OC(C)=O)[C@@H](OC(C)=O)[C@@H]1OC(C)=O` [Compound 2j, 7-Bromo-2-(4-fluorophenyl)-6-iodo-4H-chromen-4-one-3-O-2,3,4,6-O-tetraacetyl-β-d-glucopyranoside], in assay [2], the “SI AChE/BChE” value was 0.76 and the 50% inhibitory concentration (IC50) worked out at 40.93 ± 0.04 µM. In assay [3], the “SI BChE/AChE” value came out at 1.31 and inhibition was half-maximal at 31.2 ± 0.05 µM (IC50).
As for `CC(=O)OCC1OC(Oc2c(-c3ccc(Cl)cc3)oc3cc(Br)c(I)cc3c2=O)C(OC(C)=O)C(OC(C)=O)C1OC(C)=O` (stereo not drawn) [Compound 2k, 7-Bromo-2-(4-chlorophenyl)-6-iodo-4H-chromen-4-one-3-O-2,3,4,6-O-tetraacetyl-β-d-glucopyranoside], the “SI AChE/BChE” value in assay [2] came to 0.17. Besides, the results for the IC50 in assay [2], in assay [3] and in assay [1] were 29.95 ± 0.02 µM, 5.18 ± 0.01 µM and 11.4 ± 0.02 µM, respectively. Moreover, in assay [3], the “SI BChE/AChE” value was 5.78.
For `COc1ccc(-c2oc3cc(Br)c(I)cc3c(=O)c2OC2OC(COC(C)=O)C(OC(C)=O)C(OC(C)=O)C2OC(C)=O)cc1` (stereo not drawn) [Compound 2l, 7-Bromo-6-iodo-2-(4-methoxyphenyl)-4H-chromen-4-one-3-O-2,3,4,6-O-tetraacetyl-β-d-glucopyranoside], the “SI AChE/BChE” value in assay [2] is 0.70. For the same compound, the IC50 in assay [2] turned out to be 7.24 ± 0.03 µM; in assay [5] it was 18.3 ± 0.01 µM; in assay [3] it was 5.05 ± 0.02 µM; in assay [1] it was 21.6 ± 0.03 µM. Further, the “Mode of inhibition of β-secretase” value in assay [4] (Lineweaver–Burk plot) is recorded as “non-competitive”. Moreover, the Ki (in general, the dissociation constant of the complex between target and ligand, obtained from inhibition or displacement) in assay [4] (from Dixon plots, read-out: Ki for inhibition of β-secretase) was 2420 ± 50 nM; in assay [6] (from Dixon plots, read-out: Inhibition constant (Ki) against AChE), 1380 ± 620 nM; in assay [7] (from Dixon plots) it was 1510 ± 40 nM. Besides, in assay [6] (Lineweaver–Burk plot), the “Mode of inhibition of AChE” value is on record as “non-competitive”. Moreover, in assay [3], the “SI BChE/AChE” value is listed as 1.43. Also, the “Mode of inhibition of BChE” value in assay [7] (Lineweaver–Burk plot) was “non-competitive”.
Turning to `COc1cc2oc(-c3ccccc3)c(O[C@@H]3O[C@H](COC(C)=O)[C@@H](OC(C)=O)[C@H](OC(C)=O)[C@H]3OC(C)=O)c(=O)c2cc1I` [Compound 2m, 6-Iodo-7-methoxy-2-phenyl-4H-chromen-4-one-3-O-2,3,4,6-O-tetraacetyl-β-d-glucopyranoside], in assay [2], the “SI AChE/BChE” value worked out at 1.89 and the IC50 came out at 29.8 ± 0.06 µM. In addition, in assay [3], the “SI BChE/AChE” value is given as 0.53 and the 50% inhibitory concentration (IC50) amounted to 56.21 ± 0.01 µM.
Turning to `COc1cc2oc(-c3ccc(F)cc3)c(OC3OC(COC(C)=O)C(OC(C)=O)C(OC(C)=O)C3OC(C)=O)c(=O)c2cc1I` (stereo not drawn) [Compound 2n, 2-(4-Fluorophenyl)-6-Iodo-7-methoxy-4H-chromen-4-one-3-O-2,3,4,6-O-tetraacetyl-β-d-glucopyranoside], in assay [2], the “SI AChE/BChE” value was 0.18 and the IC50 is 34.21 ± 0.02 µM. In addition, in assay [3], the “SI BChE/AChE” value is given as 5.49; the IC50 is 6.33 µM and 6.23 µM. This compound also had an IC50 in assay [1] of 14.4 ± 0.02 µM.
`COc1cc2oc(-c3ccc(Cl)cc3)c(O[C@@H]3O[C@H](COC(C)=O)[C@@H](OC(C)=O)[C@H](OC(C)=O)[C@H]3OC(C)=O)c(=O)c2cc1I` [Compound 2o, 2-(4-Chlorophenyl)-6-iodo-7-methoxy-4H-chromen-4-one-3-O-2,3,4,6-O-tetraacetyl-β-d-glucopyranoside]: in assay [2], the “SI AChE/BChE” value is 0.78 and the IC50 was 36.1 ± 0.02 µM. Also, in assay [3], the “SI BChE/AChE” value worked out at 1.28 and the 50% inhibitory concentration (IC50) is 28.12 ± 0.06 µM.
As to `O=c1c(O)c(-c2ccc(O)c(O)c2)oc2cc(O)cc(O)c12` [Quercetin, quercetin, reference compound], the concentration for half-maximal inhibition (IC50) in assay [1] is 3.1 µM.
